From patent US9211305B2, “Pharmaceutical compositions with glycosaminoglycans and use thereof in the treatment of chronic ulcers” (LABORATORIOS FARMACEUTICOS ROVI S.A., priority 2008, dated 2015)
Several values for one entry are separate records, joined by “and”; a condition that tells them apart may be missing. Equal values may be shown once. Marks after values point to notes of the source that are not given here.

Tests used:
diabetic wistar rat = test: Example 2: ulcer area reduction in streptozocin-diabetized rats, subcutaneous route; assay type: in vivo; settings: for percentage of area reduction of day 9 with respect to day 1: single ulcers
Method: To perform the present embodiment, doses of 45 mg/kg of streptozocin (STZ) were administered by intramuscular route to make a batch of 8 rats diabetic (Andrades Ja et al. Engineering, expression, and renaturation of a collagen-targeted human bFGF fusion protein. Growth Factors. 2001; 18(4):261-75).
Male wistar rats with a average weight of 250 g per rat were used, to which a dose of 11.25 mg STZ per rat was administered by means of the intramuscular administration of 100 μL in the left paw of each rat.
Sweetened water (350 mg/dL) was administered to all the rats for three days and glucose measurements were performed with a glucometer every day to verify that the rats were indeed diabetized. For this reason, before the administration and at time 4 days after the administration of streptozocin, a drop of blood was extracted from the rat tail vein for the subsequent quantification of glycemia and see whether they were diabetic before starting the ulceration assay.
Once the rats were diabetized, 2 ulcers with a diameter of 1 cm each were made on them using a scalpel. An anesthesia/analgesia protocol with ketamine/xylazine was followed according to the recommendations of the book: “Handbook of laboratory animal management and welfare”:
The ulcers were treated with water and cleaned for 9 days after the ulceration.
The administrations of bemiparin and of fondaparinux were performed by means of a bemiparin solution by subcutaneous route (100 μL) for the treatment of the ulcers.
The diameter of the ulcer was quantified by means of tracing the ulcer onto a transparency to see the progress of the healing.

Non-Diabetized Rats = test: Wound healing by oral route in non-diabetized rats; assay type: in vivo, Wistar rat; settings: for histopathological Grade / histopathological Score: sacrifice day 15, fondaparinux 10 mg/kg, bemiparin 100 mg/kg
Method: Both treatments were administered by oral route at an administration volume of 10 mL/kg. In the case of fondaparinux, a dose of 10 mg/kg was administered and in the case of bemiparin, 100 mg/kg were administered.
The control group only received the carrier used to prepare the assay product. The carrier for the preparation of the assay product is a 1.5% (w/v) bicarbonate solution in water for injections. It was verified that the pH of the formulations prepared was above 8.00.
The animals were anesthetized (ketamine+xylazine, 90+10 mg/kg, i.m.). Their back was shaved and cleaned with disinfectant (povidone-iodine) and the area where the wound would be made was marked by means of a template to homogenize its position in all the animals.
The wound was made by means of a circular incision with a diameter of approximately 1.5 cm, the skin of the mid-dorsal area being removed. 1 mL/animal of physiological serum was administered by i.p. route after the intervention. […]. Analgesia (paracetamol, 1 mg/mL) was provided in drinking water for the 7 days after the intervention.
On the day after making the wound and for a total of 14 days, the assigned treatments were administered to the animals. The follow-up of the animals was performed, the evolution of the wounds being macroscopically assessed twice a week, by means of digital photography of the wound. The body weight of the animals was also recorded twice a week.
On the day after the last administration, the animals were sacrificed with anesthesia overdose (pentobarbital sodium). The area where the wound was made was extracted. The front half was frozen in liquid nitrogen and stored in a freezer (−80±5° C.) and the rear half was stored in formol for its subsequent histological processing.
The wound area was calculated as the percentage of reduction thereof to evaluate the degree of curing thereof, by means of the standardized formula: […]
On the following day and for a total of 14 days, 10 mg/kg were administered to the animals by oral route.
The follow-up of the animals was performed, the evolution of the wounds being macroscopically assessed twice a week, by means of digital photography of the wound. The body weight of the animals was also recorded twice a week.
The animals were sacrificed on day 15 of the study and the area of the skin where the wound was caused was stored in formol to perform a histopathological evaluation (hematoxylin-eosin staining).
Each section was given a histological score was given in the grade I to grade V range, where I means uncured wound and V means completely epithelialized wound. The score is based on the degree of cell invasion, the formation of granulation tissue, vascularization and epithelialization.

[1] = tested on: C57BL/KsJ-db/db diabetic mouse; test: Example 4: wound healing in genetically diabetic mouse, topical route; assay type: in vivo; settings: topical 1000 IU/kg; for histopathological Grade / histopathological Score: 14 days, sacrifice day 15
Method: In this case, topical formulations were prepared for the direct administration on the ulcers, the carriers of which formulations are formed by Carbopol, Phenonip®, Span 80, Glycerol and water.
The ulceration and measurement of the area were performed as detailed in the subcutaneous administration assays. On the day after the incision and for a total of 14 days, the assigned treatments, 0.15 ml/animal by topical route in the back of the animal, above the wound, were administered to the animals.
The follow-up of the animals was performed up to a period of 14 days (average time necessary for the healing of the wounds in this animal model). The assessment was performed by means of digital photography of the wound and subsequent image analysis.
The animals were sacrificed on the day after the last administration (day 15) and the area where the wound was made was extracted. The rear portion of the area containing the wound was stored in formol for its histological processing (hematoxylin-eosin staining).
The results were based on the score given by the method of Greenhalgh et al. (1990). Each block was given a histological score from 1 to 15, where 1 means uncured wound and 15 means completely epithelialized wound. The score is based on the degree of cell invasion, the formation of granulation tissue, vascularization and epithelialization: […]

[2] = 108 IU rats, Batch 2, subcutaneous
[3] = 217 IU rats, Batch 1, subcutaneous
[4] = Fondaparinux rats, Batch 3, 0.22 mg per rat, subcutaneous

| Compound | percentage of area reduction of day 9 with respect to day 1, Average (diabetic wistar rat; [2]) [%] | percentage of area reduction of day 9 with respect to day 1, Average (diabetic wistar rat; [3]) [%] | macroscopic healing process (diabetic wistar rat; day 9 with respect to day 0, bemiparin 217 IU) | percentage of area reduction of day 9 with respect to day 1 (diabetic wistar rat; [2]) | percentage of area reduction of day 9 with respect to day 1 (diabetic wistar rat; [3]) | reduction of the ulceration area (Non-Diabetized Rats; oral 100 mg/kg, 14 days) | histopathological Grade (Non-Diabetized Rats; oral, 14 days) | histopathological Score (Non-Diabetized Rats; oral, 14 days) | scab formation (Non-Diabetized Rats; oral, compared with fondaparinux) | histopathological Grade [1] | histopathological Score [1] | area reduction ([1]; end of the treatment (14 days)) | percentage of area reduction of day 9 with respect to day 1, Average (diabetic wistar rat; [4]) [%] | percentage of area reduction of day 9 with respect to day 1 (diabetic wistar rat; [4]) |
| --- | --- | --- | --- | --- | --- | --- | --- | --- | --- | --- | --- | --- | --- | --- |
| Bemiparin | 24.39 ± 7.47 | 27.35 ± 7.25 | macroscopically much better than in the case of fondaparinux | 16.96% and 13.26% and 19.14% and 19.71% | 29.31% and 31.85% and 28.40% and 24.89% | more or less to the same extent as the control animals | III (7-9 Moderately thick granulation tissue. It can vary from being dominated by inflammatory cells to greater presence of fibroblasts and collagen deposition, extensive neovascularization, minimum to moderate epithelial migration.) | 9.0 | much more pronounced scab process | III (7-9 Moderately thick granulation tissue. It can vary from being dominated by inflammatory cells to greater presence of fibroblasts and collagen deposition, extensive neovascularization, minimum to moderate epithelial migration.) | 8.7 | greater than 60% | – | – |
| CO[C@H]1O[C@H](COS(=O)(=O)O)[C@@H](O[C@@H]2O[C@@H](C(=O)O)[C@@H](O[C@H]3O[C@H](COS(=O)(=O)O)[C@@H](O[C@@H]4O[C@H](C(=O)O)[C@@H](O[C@H]5O[C@H](COS(=O)(=O)O)[C@@H](O)[C@H](O)[C@H]5NS(=O)(=O)O)[C@H](O)[C@H]4O)[C@H](OS(=O)(=O)O)[C@H]3NS(=O)(=O)O)[C@H](O)[C@H]2OS(=O)(=O)O)[C@H](O)[C@H]1NS(=O)(=O)O [Fondaparinux] | – | – | – | – | – | – | III (7-9 Moderately thick granulation tissue. It can vary from being dominated by inflammatory cells to greater presence of fibroblasts and collagen deposition, extensive neovascularization, minimum to moderate epithelial migration.) | 9.5 | – | III (7-9 Moderately thick granulation tissue. It can vary from being dominated by inflammatory cells to greater presence of fibroblasts and collagen deposition, extensive neovascularization, minimum to moderate epithelial migration.) | 8.6 | – | 20.70 | 17.00%* and 20.69% and 21.32% and 23.81% |
